Columns and labels:
[1] = molecular target: T1, insulin receptor (Rattus norvegicus, UniProt P15127); experiment: 125I-insulin binding after preincubating endosomes (ENs containing IR) with nucleotides; conditions: for 125I-insulin specific binding, WGA-purified endosomes / 125I-insulin specific binding, solubilized endosomes: preincubation 37° C. 15 min; for 125I-Insulin specific binding (%), Solubilized endosomes / 125I-Insulin specific binding (%), WGA-purified endosomes: Table 2, normalized to endosomes without nucleotide
T1 construct: from tissue; host or cells: rat liver; endosome (EN) and plasma membrane (PM) fractions
Description: Rats were anaesthetized with ether and were injected via jugular vein with a dose (per 100 g body weight) of insulin (1.5 μg), or bpV(phen) (0.6 μmol), dissolved in 0.2 ml. phosphate buffered saline (pH 7.4) −0.1% BSA. […] Livers were rapidly excised, placed in ice-cold homogenizing buffer (50 mM HEPES (pH 7.4), 0.25 M sucrose, 1 mM PMSF, 1 MM MgCl2, 1 mM benzamidine) and minced before homogenization. […] These subcellular fractions have been characterized in detail both morphologically and biochemically.
After 10 min at room temperature, the reactions was terminated by spotting 50 μl aliquots on Whatman 3 MM filters.
In the present study we wished to assess whether other processes might be involved in reducing the association of intraendosomal insulin with its receptor. We examined the effect of incubating intact ENs containing IR with increasing concentrations of ATP on subsequently measured insulin and hGH binding in both solubilized and WGA-purified receptors.

[2] = molecular target: T2, insulin receptor kinase (IRK) β-subunit (Rattus norvegicus, UniProt P15127); experiment: IRK β-subunit phosphotyrosine content (αPY immunoblot of WGA eluates); type: biochemical
T2 construct: from tissue; host or cells: rat liver; endosome (EN) and plasma membrane (PM) fractions
Description: The phosphotyrosine content of endosomal IRs (ENs containing IR) was determined by subjecting lectin column (WGA-Sepharose™)-purified preparations to SDS-PAGE and immunoblotting with α960 and αPY (Faure et al. (1992) J. Biol. Chem. 267, 11215-11221). […] FIG. 1B illustrates the effect of ATP on β subunit phosphotyrosine content. WGA eluates (5 μg protein) were subjected to SDS-PAGE in 7.5% gels followed by transfer of proteins to Immobilon-P membranes. Membranes were probed with αPY or α960 antibodies followed by incubation with ^125I-GAR as second antibody and exposed for autoradiography.

[3] = molecular target: T3, EGF receptor (Rattus norvegicus, UniProt G3V6K6); experiment: EGF receptor autophosphorylation in endosomes in the presence and absence of ATP; type: biochemical; conditions: ENs from EGF-treated rats incubated with 5 mM ATP
T3 construct: from tissue; host or cells: rat liver endosomes after EGF injection in vivo
Description: EGF (10 μg/100 g body weight) was injected via the jugular vein into anesthetized rats. The animals were sacrificed by decapitation 15 mins later and ENs containing EGF receptor were prepared as noted above. Resuspended ENs containing EGF receptor were incubated for 15 mins with 5 mM ATP after which auto-phosphorylation was initiated by adding ^32P-ATP. The reaction was stopped after 15 mins of incubation at 37° C. by adding Laemmli sample buffer after which aliquots (100 μg protein) were subjected to SDS-PAGE, alkali digestion, and radioautography as described previously (Faure, R. et al. (1992) J. Biol. Chem. 267, 11215-11221).
We then determined whether preincubation with ATP attenuated EGF receptor autophosphorylation. […] EN fractions, prepared 15 mins after injecting rats with EGF (10 μg/100 g body weight), were incubated in the presence or absence of ATP (5 mM) prior to conducting autophosphorylation with ^32P-ATP, SDS-PAGE, and autoradiography.

[4] = molecular target: T4, insulin receptor kinase (IRK) (Rattus norvegicus, UniProt P15127); experiment: DTT-dependent reduction of endosomal IRK heterotetramer (non-reducing SDS-PAGE); type: biochemical; conditions: ENs incubated with 5 mM ATP, 10 mM DTT, 15 min 37° C.
T4 construct: from tissue; host or cells: rat liver; endosome (EN) and plasma membrane (PM) fractions
Description: Endosomal pellets containing IR were resuspended (500 μg protein/ml) in a final concentration of 50 mM Tris (pH 6.9), 10% glycerol and 20 mM N-ethylmaleimide. Samples were incubated at room temperature for 5 mins and then solubilized without heating in 2.3% SDS-0.05% bromophenol blue before subjecting to SDS-PAGE in the absence of reductants (Faure et al. ([…]) J. Biol. Chem. 267, 11215-11221).
The above observation raised the possibility that intraluminal events were responsible for deactivation of the endosomal IRK. This led us to investigate whether there might be a conformational change in the IRK consequent to ATP-dependent acidification. To probe this possibility we incubated ENs containing IR with ATP in the presence or absence of 10 mM DTT to assess the ease with which Type I disulfide bonds might be reduced in the heterotetrameric molecule ([…]). […] Hepatic ENs containing IR were prepared 2 mins after insulin injection (1.5 μg/100 g body weight) and were incubated for 15 min at 37° C. in the absence or presence of 10 mM DTT and 5 mM ATP. The ENs were centrifuged and the pellets resuspended and treated as described above. Samples were applied without heating to SDS-PAGE (gradient resolving gel, 3-10% acrylamide) in the absence of reductant. […]

T2 sequence (P15127 27-759 limits assumed): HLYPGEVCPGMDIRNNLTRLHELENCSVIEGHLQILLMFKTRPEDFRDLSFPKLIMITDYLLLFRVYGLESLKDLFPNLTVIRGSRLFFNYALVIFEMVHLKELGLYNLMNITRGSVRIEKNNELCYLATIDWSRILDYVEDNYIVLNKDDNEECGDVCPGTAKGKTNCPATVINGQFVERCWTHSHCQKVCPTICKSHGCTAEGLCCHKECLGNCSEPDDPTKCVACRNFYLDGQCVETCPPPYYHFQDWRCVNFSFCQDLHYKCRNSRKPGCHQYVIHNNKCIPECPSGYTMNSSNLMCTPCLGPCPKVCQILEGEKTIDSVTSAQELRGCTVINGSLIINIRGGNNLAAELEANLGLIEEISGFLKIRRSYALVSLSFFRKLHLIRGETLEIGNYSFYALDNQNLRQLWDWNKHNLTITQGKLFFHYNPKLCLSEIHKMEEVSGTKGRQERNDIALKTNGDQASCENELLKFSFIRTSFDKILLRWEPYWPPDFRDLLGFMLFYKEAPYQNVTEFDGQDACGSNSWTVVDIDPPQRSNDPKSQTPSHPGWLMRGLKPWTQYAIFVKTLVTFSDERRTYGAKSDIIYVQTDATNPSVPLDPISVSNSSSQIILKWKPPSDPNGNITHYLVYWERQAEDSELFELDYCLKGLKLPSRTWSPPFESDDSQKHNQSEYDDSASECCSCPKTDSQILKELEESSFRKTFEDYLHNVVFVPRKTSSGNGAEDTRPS
T2 sequence (P15127 764-1383 limits assumed): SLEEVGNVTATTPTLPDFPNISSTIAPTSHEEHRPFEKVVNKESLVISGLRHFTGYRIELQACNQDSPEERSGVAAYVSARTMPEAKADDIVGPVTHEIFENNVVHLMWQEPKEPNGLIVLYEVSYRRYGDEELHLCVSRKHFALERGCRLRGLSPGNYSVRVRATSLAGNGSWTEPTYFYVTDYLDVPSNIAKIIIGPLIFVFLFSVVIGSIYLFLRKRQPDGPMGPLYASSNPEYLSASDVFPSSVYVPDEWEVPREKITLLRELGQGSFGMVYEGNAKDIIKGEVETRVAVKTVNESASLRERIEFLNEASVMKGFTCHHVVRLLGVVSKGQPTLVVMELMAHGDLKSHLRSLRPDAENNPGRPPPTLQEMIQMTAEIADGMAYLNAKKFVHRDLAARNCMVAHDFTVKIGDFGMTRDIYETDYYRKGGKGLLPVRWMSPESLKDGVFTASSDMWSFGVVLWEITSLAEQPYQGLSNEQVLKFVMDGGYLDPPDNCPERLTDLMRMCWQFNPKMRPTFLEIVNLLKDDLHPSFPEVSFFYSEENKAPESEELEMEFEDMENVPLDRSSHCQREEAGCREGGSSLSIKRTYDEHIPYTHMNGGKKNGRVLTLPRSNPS
T1 sequence (P15127 27-759 limits assumed): as the sequence (P15127 27-759 limits assumed) above
T1 sequence (P15127 764-1383 limits assumed): as the sequence (P15127 764-1383 limits assumed) above
T4 sequence (P15127 27-759 limits assumed): as the sequence (P15127 27-759 limits assumed) above
T4 sequence (P15127 764-1383 limits assumed): as the sequence (P15127 764-1383 limits assumed) above
T3 sequence (G3V6K6 25-1209): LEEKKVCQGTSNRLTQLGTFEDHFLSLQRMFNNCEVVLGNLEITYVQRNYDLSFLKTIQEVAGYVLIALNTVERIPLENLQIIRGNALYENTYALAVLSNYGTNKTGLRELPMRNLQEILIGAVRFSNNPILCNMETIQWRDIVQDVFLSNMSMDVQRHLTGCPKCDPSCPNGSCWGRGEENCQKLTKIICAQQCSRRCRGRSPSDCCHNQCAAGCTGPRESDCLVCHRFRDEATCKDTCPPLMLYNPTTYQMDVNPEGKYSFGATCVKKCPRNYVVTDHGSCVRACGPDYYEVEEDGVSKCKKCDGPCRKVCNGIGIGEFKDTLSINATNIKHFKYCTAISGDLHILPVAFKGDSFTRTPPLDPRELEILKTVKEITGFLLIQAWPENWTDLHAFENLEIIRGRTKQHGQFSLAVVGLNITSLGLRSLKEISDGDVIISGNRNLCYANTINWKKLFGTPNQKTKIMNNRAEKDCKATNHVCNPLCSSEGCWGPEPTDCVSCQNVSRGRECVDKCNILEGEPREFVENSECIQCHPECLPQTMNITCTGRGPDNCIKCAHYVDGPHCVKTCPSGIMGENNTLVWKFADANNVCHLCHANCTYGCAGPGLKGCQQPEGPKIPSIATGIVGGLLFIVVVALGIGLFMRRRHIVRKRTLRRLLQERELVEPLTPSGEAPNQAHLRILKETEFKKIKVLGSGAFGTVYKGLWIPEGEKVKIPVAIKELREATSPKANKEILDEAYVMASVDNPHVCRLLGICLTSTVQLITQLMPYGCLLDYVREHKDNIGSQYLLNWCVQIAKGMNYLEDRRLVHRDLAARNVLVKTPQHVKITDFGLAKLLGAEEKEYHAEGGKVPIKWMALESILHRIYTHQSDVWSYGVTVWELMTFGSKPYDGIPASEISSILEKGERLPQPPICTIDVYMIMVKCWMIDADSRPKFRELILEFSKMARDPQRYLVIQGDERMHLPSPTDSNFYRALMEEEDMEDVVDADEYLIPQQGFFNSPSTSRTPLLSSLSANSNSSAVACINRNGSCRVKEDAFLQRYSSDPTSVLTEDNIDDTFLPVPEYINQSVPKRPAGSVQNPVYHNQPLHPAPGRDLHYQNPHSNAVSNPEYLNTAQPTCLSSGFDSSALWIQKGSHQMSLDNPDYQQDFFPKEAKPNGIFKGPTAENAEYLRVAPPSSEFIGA

Nc1ncnc2c1ncn2[C@@H]1O[C@H](COP(=O)(O)OP(=O)(O)OP(=O)(O)O)[C@@H](O)[C@H]1O [ATP, adenosine 5′triphosphate]
125I-insulin specific binding, WGA-purified endosomes ([1]; ATP 0.1 mM, percent of control): 107.7 ± 1.5% | 125I-insulin specific binding, solubilized endosomes ([1]; ATP 0.1 mM, percent of control ENs without ATP): 103.6 ± 2.5% | 125I-insulin specific binding, WGA-purified endosomes ([1]; ATP 1 mM, percent of control): 123.9 ± 6.2% | 125I-insulin specific binding, solubilized endosomes ([1]; ATP 1 mM, percent of control): 90.9 ± 4.2% | 125I-insulin specific binding, WGA-purified endosomes ([1]; ATP 3 mM, percent of control): 99.3 ± 0.9% | 125I-insulin specific binding, solubilized endosomes ([1]; ATP 3 mM, percent of control): 96.7 ± 2.6% | 125I-insulin specific binding, WGA-purified endosomes ([1]; ATP 5 mM, percent of control): 52.1 ± 1.2% | 125I-insulin specific binding, solubilized endosomes ([1]; ATP 5 mM, percent of control): 84.2 ± 2.7% | 125I-insulin specific binding, WGA-purified endosomes ([1]; ATP 10 mM, percent of control): 8.4 ± 0.2% | 125I-Insulin specific binding (%), Solubilized endosomes ([1]; addition 0.1 mM, 37° C. 15 min): 103.4 ± 2.5% | 125I-Insulin specific binding (%), WGA-purified endosomes ([1]; addition 0.1 mM, 37° C. 15 min): 108.1 ± 2.0% | 125I-Insulin specific binding (%), Solubilized endosomes ([1]; addition 1 mM, 37° C. 15 min): 95.5 ± 14.2% | 125I-Insulin specific binding (%), WGA-purified endosomes ([1]; addition 1 mM, 37° C. 15 min): 92.2 ± 2.2% | 125I-Insulin specific binding (%), Solubilized endosomes ([1]; addition 10 mM at 4° C. (on ice)): 112.0 ± 3.3% | 125I-Insulin specific binding (%), Solubilized endosomes ([1]; addition 10 mM, 37° C. 15 min): 43.6 ± 6.3% | 125I-Insulin specific binding (%), WGA-purified endosomes ([1]; addition 10 mM, 37° C. 15 min): 25.2 ± 5.2% | IRK phosphotyrosine content (FIG. 1B) ([2]; 1 mM ATP, 15 min 37° C.): markedly increased | IRK phosphotyrosine content (FIG. 1B) ([2]; 5 mM ATP, compared to 1 mM ATP): significantly reduced | IRK phosphotyrosine content (FIG. 1B) ([2]; 10 mM ATP, compared to 1 mM ATP): virtually abolished | IRK phosphotyrosine content after sequential incubations (FIG. 7A) ([2]; preincubation 1 mM ATP 15 min, second incubation 5 mM ATP): substantial retention | IRK phosphotyrosine content after sequential incubations ([2]; sequential incubations in 1 mM ATP): no deleterious effect | 32P-labeling (autophosphorylation) of the EGF receptor (FIG. 3B) [3]: no significant attenuation | Ability of DTT to reduce tetrameric IRK molecules (FIG. 8) [4]: significantly decreased
